Test results: paper PMC3722118, “Hellebrin and its aglycone form hellebrigenin display similar in vitro growth inhibitory effects in cancer cells and binding profiles to the alpha subunits of the Na^+/K^+-ATPase” (Molecular Cancer, 2013)
Where two headings read alike, the source gives them in different places.

Tests used:
[1] = test system: HCT-116 p53/wt and HCT-116 p53/ko colon carcinoma cells; assay: MTT viability, p53 wild-type versus knock-out model; format: cell-based, human; details: 72 hours
Text: (§1) The following human cancer cell lines and their chemoresistant sublines were used in this study: the colon carcinoma cell line HCT-116 p53/wt and the p53 knock-out cell line HCT-116 p53/ko (generously donated by B. Vogelstein, Johns Hopkins University, Baltimore, MD, USA); the epidermal carcinoma-derived cell line KB-3-1 and the ABCB1-overexpressing subline KB-C-1 (generously donated by D.W. Shen, Bethesda, USA); the small cell lung carcinoma cell line GLC-4 and the ABCC1- and LRP-overexpressing subline GLC-4/ADR (from E.G. de Vries, Groningen, Netherlands); the ovarian carcinoma cell line A2780 and the cisplatin resistant subline A2780cis (purchased from Sigma-Aldrich); and the promyelocytic leukemia cell line HL60 and the mitoxantrone resistant subline HL60/mx (generously donated by G. Harker, Salt Lake City, USA). All cell lines were grown in RPMI 1640 supplemented with 10% fetal bovine serum with the exception of the HCT-116 cells, which were grown in McCoy’s medium with 10% serum.
(§2) Figure 4 Impact of different MDR mechanisms on the cytotoxicity of hellebrigenin. […] Viability was determined using a 3-(4,5-dimethythiazol-2-yl)-2,5-diphenyltetrazolium bromide (MTT) colorimetric assay. […]

MDR cancer cell models = assay: MTT viability in several MDR cancer cell models; format: cell-based, human; details: overexpression of ABC-transporters and/or altered glutathione metabolism, 72 hours
Text: as §1, §2

[2] = biological target: T1, purified human α1β1 Na+/K+-ATPase (Homo sapiens, UniProt P05023); assay: Inhibition of NaK activity of purified detergent-soluble complex (Pi release); format: biochemical; details: for selectivity in inhibition of NaK activity of all of the purified complexes: comparison of α1β1, α2β1, α3β1 purified complexes
T1 construct: made in house; host or cells: Pichia pastoris strain SMD1165; detergent-soluble complex purified
Procedure: The inhibition of NaK activity of the purified detergent-soluble α1β1, α2β1, and α3β1 complexes by cardiotonic steroids and an analysis of the inhibition data (Ki values) were also performed as previously described. The inhibitors were added to the recombinant enzyme (0.08–0.2 μg of protein) in 400 μl of reaction medium containing 130 mM NaCl, 5 mM KCl, 3 mM MgCl2, 25 mM histidine, pH 7.4, 1 mM EGTA, 0.01 mg/ml SOPS, 0.001 mg/ml cholesterol, and 0.005 mg/ml C12 E8 in 48-well plates. The reaction (37°C for 1 h) was started by the addition of 1mM ATP. Pi release was measured with a malachite green dye to detect the phosphor-molybdate (Pi Color Lock, Innova Biosciences). The percent inhibition V /V0 was calculated for each cardiac glycoside concentration, and Ki values were obtained by fitting the data to the function V /V0 = Ki /([CG] + Ki ) (using Kaleidagraph). V0 and V represent the control rate and rate of NaK-ATPase activity at particular concentrations of cardiac glycosides, [CG], respectively.
(§3) Average KD or Ki values ± SEM for each isoform were calculated. Statistical significance was calculated by the unpaired Students t-test. P values <0.05 were considered significant.

[3] = test system: human cancer cells (A549, U373, Hs683, T98G, MCF-7, SKMEL-28, PC-3, HT-29); assay: MTT growth inhibition, mean over the eight human cancer cell lines; format: cell-based; details: read-out: IC50 (nM) Mean ± SEM
Method in brief: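 Cells were grown in RPMI with 10% heat-inactivated fetal calf serum, 4 mM glutamine and antibiotics. Growth was measured by MTT reduction to formazan read by spectrophotometry, with treated cell optical density compared to untreated controls. Six replicates per condition.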

NHDF fibroblasts = assay: MTT growth inhibition in non-cancerous control cell line; format: cell-based; details: normal human fibroblasts, read-out: in vitro growth inhibitory effects (IC50) in NHDF fibroblasts
Text: The histological types and origins of the eight human cancer cell lines that were used for the MTT colorimetric assay are detailed in the legend of Table 1. Two mouse cancer cell lines were also used, the CT26.WT colon cancer cell line (ATCC code CRL-2638) and the B16F10 melanoma cell line (ATCC code CRL-6475). Both cell lines were obtained from the American Type Culture Collection (ATCC, Manassas, VA). A control cell line (human NHDF fibroblasts) was obtained from PromoCell (code c-12300; Heidelberg, Germany). The cell lines detailed in Figure 2A are a generous gift from the National Cancer Institute (NCI, Bethesda, USA) to Steven Karlish’s lab.
The cancer cells were cultured in RPMI (Lonza, Verviers, Belgium) medium supplemented with 10% heat-inactivated fetal calf serum (Lonza). All culture media were supplemented with 4 mM glutamine, 100 μg/mL gentamicin, 200 U/mL penicillin and 200 μg/mL streptomycin (Lonza). The NHDF fibroblasts were cultured in Lonza medium cc3132 KT FGM-2 BulletKit.
The overall growth level of the human cancer cell lines was determined using a colorimetric MTT (3-(4,5-dimethylthiazol-2yl)-2,5-diphenyltetrazolium bromide, Sigma, Belgium) assay as detailed previously. Briefly, this test measures the number of metabolically active (thus living) cells that are able to transform the yellow MTT into the blue formazan dye via a mitochondrial reduction involving succinate dehydrogenase. The amount of formazan obtained at the end of the experiment (measured by spectrophotometry) is directly proportional to the number of living cells. The determination of the optical density in the control compared to the treated cells therefore enables quantitative measurements of the effects of compounds on the growth of normal as well as cancer cells in vitro.
Each experimental condition was performed in six replicates.

human α2β1 NaK complex = biological target: T2, human α2β1 NaK complex (Homo sapiens, UniProt P50993); assay: 3H-ouabain competitive displacement on P. pastoris membranes; format: binding; details: for Kd: 3H-ouabain displacement, three independent experiments, read-out: Affinity (nM) α-2 (KD ± SEM); for Selectivity α-1 / α-2: ratio of KD α-1 to KD α-2
T2 construct: made in house; host or cells: Pichia pastoris strain SMD1165 (membranes)
Procedure: (§4) K0.5 was calculated using a one site inhibition model: B/BCG=0 = K0.5/([CG] + K0.5). […] Binding of each cardiac glycoside was estimated in 3 separate experiments.
as §3

human α1β1 NaK complex = biological target: T3, human α1β1 NaK complex (Homo sapiens, UniProt P05023); assay: as above; format: binding; details: for Kd: 3H-ouabain displacement, three independent experiments, read-out: Affinity (nM) α-1 (KD ± SEM); for fold higher affinity for α1 than for the α2 and α3 subunits: from Table 2 KD values
T3 construct: made in house; host or cells: Pichia pastoris strain SMD1165 (membranes)
Procedure: as §4, §3

human α3β1 NaK complex = biological target: T4, human α3β1 NaK complex (Homo sapiens, UniProt P13637); assay: as above; format: binding; details: for Kd: 3H-ouabain displacement, three independent experiments, read-out: Affinity (nM) α-3 (KD ± SEM); for Selectivity α-1 / α-3: ratio of KD α-1 to KD α-3
T4 construct: made in house; host or cells: Pichia pastoris strain SMD1165 (membranes)
Procedure: as §4, §3

With C[C@]12CC[C@H]3[C@@H](CC[C@]4(O)C[C@@H](O)CC[C@]34C=O)[C@@]1(O)CC[C@@H]2c1ccc(=O)oc1 [Hellebrigenin] the “in vitro growth inhibitory activity in p53 wild-type versus p53KO HCT-116 cells” value [1] was “similar”, the “activity in several MDR cancer cell models versus parental cells” value (MDR cancer cell models) was “equally active” and the Ki ([2]; 37°C, 1 h, 1 mM ATP, read-out: Ki for inhibition of NaK activity of purified human α1β1) was 0.046 ± 0.006 µM. For the same compound, the “selectivity in inhibition of NaK activity of all of the purified complexes” value [2] was “no selectivity”, the IC50 ([3]; mean over eight human cancer cell lines, three days of culture) was 16 ± 5 nM and the IC50 (NHDF fibroblasts) was > 10 µM. The Kd (human α2β1 NaK complex) was 198 ± 51 nM, the “Selectivity α-1 / α-2” value (human α2β1 NaK complex) was 0.5 and the Kd (human α1β1 NaK complex) was 103 ± 19 nM. For the same compound, the “fold higher affinity for α1 than for the α2 and α3 subunits” value (human α1β1 NaK complex) was ~ 2 fold, the Kd (human α3β1 NaK complex) was 191 ± 23 nM and the “Selectivity α-1 / α-3” value (human α3β1 NaK complex) was 0.5.

In the case of C[C@@H]1O[C@@H](O[C@H]2CC[C@]3(C=O)[C@H]4CC[C@]5(C)[C@@H](c6ccc(=O)oc6)CC[C@]5(O)[C@@H]4CC[C@]3(O)C2)[C@H](O)[C@H](O)[C@H]1O[C@@H]1O[C@H](CO)[C@@H](O)[C@H](O)[C@H]1O [Hellebrin], the “in vitro growth inhibitory activity in p53 wild-type versus p53KO HCT-116 cells” value [1] is reported as “similar”, the “activity in several MDR cancer cell models versus parental cells” value (MDR cancer cell models) is reported as “equally active” and the Ki [2] is reported as 0.103 ± 0.007 µM. For the same compound, the “selectivity in inhibition of NaK activity of all of the purified complexes” value [2] was “no selectivity”, the IC50 ([3]; Homo sapiens, 72 h) was 28 ± 7 nM and the IC50 (NHDF fibroblasts; NHDF) was > 10 µM. The Kd (human α2β1 NaK complex) was 218 ± 52 nM, the “Selectivity α-1 / α-2” value (human α2β1 NaK complex) was 0.4 and the Kd (human α1β1 NaK complex) was 86 ± 18 nM. For the same compound, the “fold higher affinity for α1 than for the α2 and α3 subunits” value (human α1β1 NaK complex) was ~ 2 fold, the Kd (human α3β1 NaK complex) was 175 ± 20 nM and the “Selectivity α-1 / α-3” value (human α3β1 NaK complex) was 0.5.
